Here are results for two molecules from patent US5981517A, “Androstene derivatives” (priority 1997, dated 1999).

Data set [1] has as its system right ear of each mouse (croton oil challenge). In words: Ear edema test (croton oil, mice). The note with it: 6 h after croton oil challenge. The class given is in vivo. As to the method:
In treatment groups of mice, selected amounts of the test compound were dissolved in acetone containing 5% croton oil; then, 50 microliters of the solution were applied to the inner surface of the right ear of each mouse. A control group of mice was identically treated with vehicle only, i.e., 5% croton oil in acetone. Six hours after croton oil challenge, the thickness of each ear was measured.

For another data set, the system named is skin. The experiment in a line: Skin weight test, 10 days of topical treatment in the rat. The format is in vivo, Male Sprague-Dawley rats. As to conditions: rat, in vivo. As to the method:
Male Sprague-Dawley rats, weighing about 210 g, were lightly anesthetized with ether, shaved and marked in three areas on each flank with intradermally injected blue ink. […] Treated control animals received daily topical administration of the vehicle (DMF) alone. Solvent and test compound solutions (10 μL) were applied once daily for 10 consecutive days, with […] necessary. On the eleventh day, the animals were sacrificed, their skins were removed and 16 mm diameter plugs were punched out from each area. The plugs were scraped carefully to remove subcutaneous fat and muscle, then they were blotted on filter paper and weighed. Skin atrophy is a known side effect associated with topically applied anti-inflammatory steroids.

Data set [2] deals with granulation tissue (granuloma). The class given is in vivo, rat. As to the method: The test compound was dissolved in acetone and aliquots of varying concentrations were injected into cotton pellets. The pellets were dried and then one pellet was implanted beneath the skin of each test rat. Six days later, the animals were sacrificed and the granulation tissue (granuloma) which formed in and around the implanted pellet was removed, dried and weighed. In addition, the thymi and adrenals were removed and weighed. The ability of a compound to inhibit granuloma formation in this test is a direct indication of local anti-inflammatory activity; thus, the lower the weight of granulation tissue, the better the anti-inflammatory activity.

Another data set concerns thymi. Also on record: species or system male Sprague-Dawley rats. The note with it: rat, in vivo, sc. As to the method:
Several further studies were undertaken to determine the effects of a selected compound of the invention and prior art steroids on thymi weights in rats when the drugs were systemically administered. In each of these studies, male Sprague-Dawley rats were used. The test compounds were suspended in 0.5% CMC (carboxymethylcellulose) and injected subcutaneously once daily for three days. On the fifth day (48 hours following the last treatment), the animals were sacrificed and the thymi weights were recorded. Body weight gains were measured 24 hours after the last treatment. From the test results, the TED40 's (thymolytic effective doses, that is, doses required to achieve 40% inhibition of thymi weight) and relative potencies of a representative compound of the invention and reference steroids were calculated. […] It is evident that the higher the inhibition of thymus activity at a given dose, the more toxic the compound is.

A further data set has as its system granuloma / thymolysis. In words: Comparison of local effect and systemic side-effects (therapeutic index). The class given is in vivo, rat. The note with it: granuloma relative potency / thymolysis relative potency. As to the method: The test compound was dissolved in acetone and aliquots of varying concentrations were injected into cotton pellets. The pellets were dried and then one pellet was implanted beneath the skin of each test rat. Six days later, the animals were sacrificed and the granulation tissue (granuloma) which formed in and around the implanted pellet was removed, dried and weighed. In addition, the thymi and adrenals were removed and weighed.
Several further studies were undertaken to determine the effects of a selected compound of the invention and prior art steroids on thymi weights in rats when the drugs were systemically administered. In each of these studies, male Sprague-Dawley rats were used. The test compounds were suspended in 0.5% CMC (carboxymethylcellulose) and injected subcutaneously once daily for three days. On the fifth day (48 hours following the last treatment), the animals were sacrificed and the thymi weights were recorded. Body weight gains were measured 24 hours after the last treatment.
The ED50 's calculated for the local cotton pellet granuloma assay and the TED40 's calculated on the basis of thymus inhibition testing as described above were used to arrive at relative potency and a therapeutic index for a representative species of the invention as compared to prior art steroids.

In the case of `COC(=O)[C@@]1(OC(=O)C(Cl)Cl)[C@H](C)C[C@H]2[C@@H]3CCC4=CC(=O)C=C[C@]4(C)[C@@]3(F)[C@@H](O)C[C@@]21C` [Compound I, methyl 17α-dichloroacetoxy-9α-fluoro-11β-hydroxy-16α-methylandrosta-1,4-dien-3-one-17β-carboxylate], the inhibition of swelling in data set [1] (10 μg/mL) is on record as 37.4%. Moreover, the inhibition of swelling in data set [1] (100 μg/mL) amounted to 92.1%. Also, in the data set on skin, the “Wet skin weight, Treated, Decrease” value came out at 11.6% and the “Wet skin weight, Untreated, Decrease” value is 11.2%. For the same molecule, in data set [2] (cotton pellet, 6 days), the “local anti-inflammatory activity (inhibition of granuloma formation)” value is “significant local anti-inflammatory activity”. For the same molecule, the systemic effect entry in data set [2] (rat, in vivo) is “relatively much lower systemic effect”. Further, the “Thymolysis, Relative Potency at ED40 Level (b)” value with thymi worked out at 156. Also, the “Therapeutic Index (a/b)” value with granuloma / thymolysis was 7.10.
Take `CCCCC(=O)O[C@]1(C(=O)CO)[C@@H](C)C[C@H]2[C@@H]3CCC4=CC(=O)C=C[C@]4(C)[C@@]3(F)[C@@H](O)C[C@@]21C` [Betamethasone 17-valerate, reference compound]: the “Thymolysis, Relative Potency at ED40 Level (b)” value in the data set with thymi is 100. In the data set on granuloma / thymolysis, the “Therapeutic Index (a/b)” value amounted to 1.0.
